Results on 25 compounds are retold here after patent US9796741B2 (Achillion Pharmaceuticals, Inc., priority 2014, dated 2017).

For the first assay, the target named is Human factor D (Homo sapiens (Human), UniProt P00746). The assay is described as follows: Human Factor D Assay. In kind it is biochemical.
Sequence of Human factor D (P00746 26-253): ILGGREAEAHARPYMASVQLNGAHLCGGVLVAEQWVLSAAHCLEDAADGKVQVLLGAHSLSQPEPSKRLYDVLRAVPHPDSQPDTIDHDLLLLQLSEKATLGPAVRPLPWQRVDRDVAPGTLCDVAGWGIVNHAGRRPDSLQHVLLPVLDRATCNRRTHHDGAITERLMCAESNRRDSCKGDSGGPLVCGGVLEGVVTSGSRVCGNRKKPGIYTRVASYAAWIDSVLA
Conditions: not given
The method, boiled down:
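Serum-purified factor D (80 nM final) preincubated 5 min at room temperature with compound in 50 mM Tris, 1M NaCl, pH 7.5. Z-L-Lys-SBzl and DTNB added at 100 μM each; OD405 followed kinetically over 30 min. IC50 by non-linear regression of % inhibition.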
For the compound `NC(=O)c1nn(CC(=O)N2C[C@H](F)C[C@H]2C(=O)Nc2ncc(Br)cn2)c2ccc(-c3ccnnc3)cc12` [Compound 109, 1-(2-((2S,4R)-2-(5-bromopyrimidin-2-ylcarbamoyl)-4-fluoropyrrolidin-1-yl)-2-oxoethyl)-5-(pyridazin-4-yl)-1H-indazole-3-carboxamide], the IC50 is 1000 to 10000 nM.
In turn, `CC(=O)c1cn(CC(=O)N2C[C@H](F)C[C@H]2C(=O)NC2CCCN(c3cc(C)ccc3F)C2=O)c2ccc(-c3ccnnc3)cc12` (stereo partly drawn) [Compound 125, (2S,4R)-1-(2-(3-acetyl-5-(pyridazin-4-yl)-1H-indol-1-yl)acetyl)-4-fluoro-N-(1-(2-fluoro-5-methylphenyl)-2-oxopiperidin-3-yl)pyrrolidine-2-carboxamide] showed an IC50 of 1000 to 10000 nM.
As to `CC(=O)c1cn(CC(=O)N2C[C@H](F)C[C@H]2C(=O)NCc2cccnc2)c2ccc(-c3ccnnc3)cc12` [Compound 59, (2S,4R)-1-(2-(3-acetyl-5-(pyridazin-4-yl)-1H-indol-1-yl)acetyl)-4-fluoro-N-(pyridin-3-ylmethyl)pyrrolidine-2-carboxamide], the half-inhibitory concentration (IC50) lay within 1000 to 10000 nM.

Staying with this assay, now noted: human factor D 80 nM, substrate Z-L-Lys-SBzl, DTNB.
Regarding `CC(=O)c1cn(CC(=O)N2C[C@H](F)C[C@H]2C(=O)Nc2cccc(-c3ccccc3Cl)c2F)c2ccc(-c3ccc(C)nc3)cc12` [Compound 151, (2S,4R)-1-(2-(3-acetyl-5-(6-methylpyridin-3-yl)-1H-indol-1-yl)acetyl)-N-(2′-chloro-2-fluorobiphenyl-3-yl)-4-fluoropyrrolidine-2-carboxamide], the IC50 is under 1000 nM.
Compound `CC(=O)c1cn(CC(=O)N2C[C@H](F)C[C@H]2C(=O)Nc2ccccc2N2CCOC2=O)c2ccc(-c3ccnnc3)cc12` [Compound 64, (2S,4R)-1-(2-(3-acetyl-5-(pyridazin-4-yl)-1H-indol-1-yl)acetyl)-4-fluoro-N-(2-(2-oxooxazolidin-3-yl)phenyl)pyrrolidine-2-carboxamide] had an IC50 of over 10000 nM.
In turn, `CC(=O)c1cn(CC(=O)N2C[C@H](F)C[C@H]2C(=O)Nc2cccc(-c3ccccc3Cl)c2F)c2ccc(N3CCN(C(C)=O)CC3)cc12` [Compound 16, (2S,4R)-1-(2-(3-acetyl-5-(4-acetylpiperazin-1-yl)-1H-indol-1-yl)acetyl)-N-(2′-chloro-2-fluorobiphenyl-3-yl)-4-fluoropyrrolidine-2-carboxamide] displayed an IC50 of under 1000 nM.
With `CC(=O)c1cn(CC(=O)N2C[C@H](F)C[C@H]2C(=O)Nc2cccc(-c3ccccc3Cl)c2F)c2ccc(N3CCN(c4ncccn4)CC3)cc12` [Compound 31, (2S,4R)-1-(2-(3-acetyl-5-(4-(pyrimidin-2-yl)piperazin-1-yl)-1H-indol-1-yl)acetyl)-N-(2′-chloro-2-fluorobiphenyl-3-yl)-4-fluoropyrrolidine-2-carboxamide], the IC50 was under 1000 nM.
Same read-out and setting: in the case of `NC(=O)c1nn(CC(=O)N2C[C@H](F)C[C@H]2C(=O)Nc2cccc(Cl)c2C(F)(F)F)c2ccc(-c3ccnnc3)cc12` [Compound 93, 1-(2-((2S,4R)-2-(3-chloro-2-(trifluoromethyl)phenylcarbamoyl)-4-fluoropyrrolidin-1-yl)-2-oxoethyl)-5-(pyridazin-4-yl)-1H-indazole-3-carboxamide] it was over 10000 nM.
`CC(=O)c1cn(CC(=O)N2C[C@H](F)C[C@H]2C(=O)Nc2cccc(Br)n2)c2ccc(-c3cnc(C)nc3)cc12` [Compound 84, (2S,4R)-1-(2-(3-acetyl-5-(2-methylpyrimidin-5-yl)-1H-indol-1-yl)acetyl)-N-(6-bromopyridin-2-yl)-4-fluoropyrrolidine-2-carboxamide] showed an IC50 of under 1000 nM.
In turn, `CC(=O)c1cn(CC(=O)N2C[C@H](F)C[C@H]2C(=O)Nc2cccc(Cl)n2)c2ccc(-c3cnc(C)nc3)cc12` [Compound 137, (2S,4R)-1-(2-(3-acetyl-5-(2-methylpyrimidin-5-yl)-1H-indol-1-yl)acetyl)-N-(6-chloropyridin-2-yl)-4-fluoropyrrolidine-2-carboxamide] came in with an IC50 of under 1000 nM.
For the compound `CC(=O)c1cn(CC(=O)N2C[C@H](F)C[C@H]2C(=O)NCc2ccccn2)c2ccc(-c3ccnnc3)cc12` [Compound 38, (2S,4R)-1-(2-(3-acetyl-5-(pyridazin-4-yl)-1H-indol-1-yl)acetyl)-4-fluoro-N-(pyridin-2-ylmethyl)pyrrolidine-2-carboxamide], the IC50 is under 1000 nM.
On to `NC(=O)c1nn(CC(=O)N2C[C@H](F)C[C@H]2C(=O)N[C@@H]2CCC[C@@H]2OCc2ccccc2)c2ccc(-c3ccnnc3)cc12` [Compound 51, 1-(2-((2S,4R)-2-((1R,2S)-2-(benzyloxy)cyclopentylcarbamoyl)-4-fluoropyrrolidin-1-yl)-2-oxoethyl)-5-(pyridazin-4-yl)-1H-indazole-3-carboxamide], for which the IC50 is over 10000 nM.
Same read-out and setting: the result for `NC(=O)c1nn(CC(=O)N2[C@@H]3C[C@@H]3C[C@H]2C(=O)Nc2cccc(-c3ccccc3Cl)c2F)c2ccc(-c3cncnc3)cc12` [Compound 6, 1-(2-((1R,3S,5R)-3-(2′-chloro-2-fluorobiphenyl-3-ylcarbamoyl)-2-azabicyclo[3.1.0]hexan-2-yl)-2-oxoethyl)-5-(pyrimidin-5-yl)-1H-indazole-3-carboxamide] reads under 1000 nM; that for `COCCNc1ncc(-c2ccc3c(c2)c(C(C)=O)cn3CC(=O)N2C[C@H](F)C[C@H]2C(=O)Nc2cccc(-c3ccccc3Cl)c2F)cn1` [Compound 187, (2S,4R)-1-(2-(3-acetyl-5-(2-(2-methoxyethylamino)pyrimidin-5-yl)-1H-indol-1-yl)acetyl)-N-(2′-chloro-2-fluorobiphenyl-3-yl)-4-fluoropyrrolidine-2-carboxamide], under 1000 nM.
`NC(=O)c1nn(CC(=O)N2C[C@H](F)C[C@H]2C(=O)Nc2cccc(Cl)c2-n2cncn2)c2ccc(-c3ccnnc3)cc12` [Compound 96, 1-(2-((2S,4R)-2-(3-chloro-2-(1H-1,2,4-triazol-1-yl)phenylcarbamoyl)-4-fluoropyrrolidin-1-yl)-2-oxoethyl)-5-(pyridazin-4-yl)-1H-indazole-3-carboxamide] gave an IC50 of over 10000 nM.
On to `COc1ncc(-c2ccc3c(c2)c(C(C)=O)cn3CC(=O)N2C[C@H](F)C[C@H]2C(=O)NCc2cccc(Cl)c2F)cn1` [Compound 136, (2S,4R)-1-(2-(3-acetyl-5-(2-methoxypyrimidin-5-yl)-1H-indol-1-yl)acetyl)-N-(3-chloro-2-fluorobenzyl)-4-fluoropyrrolidine-2-carboxamide], for which the IC50 was under 1000 nM.
The compound `NC(=O)c1nn(CC(=O)N2C[C@H](F)C[C@H]2C(=O)NCc2ccncc2)c2ccc(-c3ccnnc3)cc12` [Compound 157, 1-(2-((2S,4R)-4-fluoro-2-(pyridin-4-ylmethylcarbamoyl)pyrrolidin-1-yl)-2-oxoethyl)-5-(pyridazin-4-yl)-1H-indazole-3-carboxamide] gave a 50% inhibitory concentration (IC50) of over 10000 nM.
Consider `CC(=O)c1cn(CC(=O)N2C[C@H](F)C[C@H]2C(=O)Nc2nc(-c3ccccc3Cl)ns2)c2ccc(-c3ccnnc3)cc12` [Compound 99, (2S,4R)-1-(2-(3-acetyl-5-(pyridazin-4-yl)-1H-indol-1-yl)acetyl)-N-(3-(2-chlorophenyl)-1,2,4-thiadiazol-5-yl)-4-fluoropyrrolidine-2-carboxamide], for which the IC50 is under 1000 nM.
Same read-out and setting: in the case of `CC(=O)c1cn(CC(=O)N2C[C@H](F)C[C@H]2C(=O)Nc2c[nH]nc2-c2ccc(Cl)cc2Cl)c2ccc(-c3ccnnc3)cc12` [Compound 156, (2S,4R)-1-(2-(3-acetyl-5-(pyridazin-4-yl)-1H-indol-1-yl)acetyl)-N-(3-(2,4-dichlorophenyl)-1H-pyrazol-4-yl)-4-fluoropyrrolidine-2-carboxamide] it was over 10000 nM; in that of `CC(=O)c1cn(CC(=O)N2C[C@H](F)C[C@H]2C(=O)Nc2cccc(-c3ccccc3Cl)c2F)c2ccc(-c3cnc(N4CCCC4)nc3)cc12` [Compound 26, (2S,4R)-1-(2-(3-acetyl-5-(2-(pyrrolidin-1-yl)pyrimidin-5-yl)-1H-indol-1-yl)acetyl)-N-(2′-chloro-2-fluorobiphenyl-3-yl)-4-fluoropyrrolidine-2-carboxamide], under 1000 nM.
Regarding `COc1ncc(-c2ccc3c(c2)c(C(N)=O)nn3CC(=O)N2C[C@H](F)C[C@H]2C(=O)Nc2cccc(Cl)n2)cn1` [Compound 30, 1-(2-((2S,4R)-2-(6-chloropyridin-2-ylcarbamoyl)-4-fluoropyrrolidin-1-yl)-2-oxoethyl)-5-(2-methoxypyrimidin-5-yl)-1H-indazole-3-carboxamide], the IC50 is under 1000 nM.
Same read-out and setting: in the case of `CC(=O)c1cn(CC(=O)N2C[C@H](F)C[C@H]2C(=O)Nc2ccccc2-c2nc3ccccc3s2)c2ccc(-c3ccnnc3)cc12` [Compound 34, (2S,4R)-1-(2-(3-acetyl-5-(pyridazin-4-yl)-1H-indol-1-yl)acetyl)-N-(2-(benzo[d]thiazol-2-yl)phenyl)-4-fluoropyrrolidine-2-carboxamide] it was over 10000 nM; in that of `CC(=O)Nc1ncc(-c2ccc3c(c2)c(C(C)=O)cn3CC(=O)N2C[C@H](F)C[C@H]2C(=O)Nc2cccc(-c3ccccc3Cl)c2F)cn1` [Compound 138, (2S,4R)-1-(2-(5-(2-acetamidopyrimidin-5-yl)-3-acetyl-1H-indol-1-yl)acetyl)-N-(2′-chloro-2-fluorobiphenyl-3-yl)-4-fluoropyrrolidine-2-carboxamide], under 1000 nM; in that of `CC(=O)c1cn(CC(=O)N2C[C@H](F)C[C@H]2C(=O)Nc2cc(C)nc3nc(C(F)(F)F)nn23)c2ccc(-c3ccnnc3)cc12` [Compound 97, (2S,4R)-1-(2-(3-acetyl-5-(pyridazin-4-yl)-1H-indol-1-yl)acetyl)-4-fluoro-N-(5-methyl-2-(trifluoromethyl)-[1,2,4]triazolo[1,5-a]pyrimidin-7-yl)pyrrolidine-2-carboxamide], over 10000 nM.
Still for that read-out and setting: in the case of `Cn1ccc(N2CCC(NC(=O)[C@@H]3C[C@@H](F)CN3C(=O)Cn3nc(C(N)=O)c4cc(-c5ccnnc5)ccc43)C2=O)n1` (stereo partly drawn) [Compound 155, 1-(2-((2S,4R)-4-fluoro-2-(1-(1-methyl-1H-pyrazol-3-yl)-2-oxopyrrolidin-3-ylcarbamoyl)pyrrolidin-1-yl)-2-oxoethyl)-5-(pyridazin-4-yl)-1H-indazole-3-carboxamide] it was over 10000 nM.
